How the values were obtained:
Assay type in all cases: functional
[1] = system: MDA-MB-231; assay: Cytotoxicity against human MDA-MB-231/ATCC cells after 48 hrs by SRB assay; settings: MDA-MB-231, 48 h
[2] = system: TK-10; assay: Cytotoxicity against human TK10 cells after 48 hrs by SRB assay; settings: TK-10, 48 h
[3] = system: RXF 393; assay: Cytotoxicity against human RXF393 cells after 48 hrs by SRB assay; settings: RXF 393, 48 h
[4] = system: SK-OV-3; assay: Cytotoxicity against human SKOV3 cells after 48 hrs by SRB assay; settings: SK-OV-3, 48 h
[5] = system: Malme-3M; assay: Cytotoxicity against human MALME-3M cells after 48 hrs by SRB assay
[6] = system: U-251; assay: Cytotoxicity against human U251 cells after 48 hrs by SRB assay; settings: U-251, 48 h
[7] = system: SNB-75; assay: Cytotoxicity against human SNB75 cells after 48 hrs by SRB assay; settings: SNB-75, 48 h
[8] = system: SF-539; assay: Cytotoxicity against human SF539 cells after 48 hrs by SRB assay; settings: SF-539, 48 h
[9] = system: T47D; assay: Cytotoxicity against human T47D cells assessed as cell growth at 10^-5 M after 48 hrs by SRB assay; settings: read-out: Activity
[10] = system: 786-0; assay: Cytotoxicity against human 786-0 cells assessed as cell growth at 10^-5 M after 48 hrs by SRB assay; settings: 786-0, 48 h, read-out: Activity
[11] = system: U-251; assay: Cytotoxicity against human U251 cells assessed as cell growth at 10^-5 M after 48 hrs by SRB assay; settings: U-251, 48 h, read-out: Activity
[12] = system: SNB-75; assay: Cytotoxicity against human SNB75 cells assessed as cell growth at 10^-5 M after 48 hrs by SRB assay; settings: SNB-75, 48 h, read-out: Activity
[13] = system: SF-539; assay: Cytotoxicity against human SF539 cells assessed as cell growth at 10^-5 M after 48 hrs by SRB assay; settings: SF-539, 48 h, read-out: Activity
[14] = system: A498; assay: Cytotoxicity against human A498 cells assessed as cell growth at 10^-5 M after 48 hrs by SRB assay; settings: A498, 48 h, read-out: Activity
[15] = system: HOP-92; assay: Cytotoxicity against human HOP92 cells assessed as cell growth at 10^-5 M after 48 hrs by SRB assay; settings: HOP-92, 48 h, read-out: Activity
[16] = Cytotoxicity against human EKVX cells assessed as cell growth at 10^-5 M after 48 hrs by SRB assay; settings: read-out: Activity
[17] = system: SR; assay: Cytotoxicity against human SR cells assessed as cell growth at 10^-5 M after 48 hrs by SRB assay; settings: read-out: Activity
[18] = system: CCRF-CEM; assay: Cytotoxicity against human CCRF-CEM cells assessed as cell growth at 10^-5 M after 48 hrs by SRB assay; settings: read-out: Activity
[19] = system: MDA-MB-468; assay: Cytotoxicity against human MDA-MB-468 cells assessed as cell growth at 10^-5 M after 48 hrs by SRB assay; settings: MDA-MB-468, 48 h, read-out: Activity
[20] = system: UO-31; assay: Cytotoxicity against human UO31 cells assessed as cell growth at 10^-5 M after 48 hrs by SRB assay; settings: UO-31, 48 h, read-out: Activity
[21] = system: UACC-62; assay: Cytotoxicity against human UACC62 cells assessed as cell growth at 10^-5 M after 48 hrs by SRB assay; settings: UACC-62, 48 h, read-out: Activity
[22] = system: RPMI-8226; assay: Cytotoxicity against human RPMI8226 cells assessed as cell growth at 10^-5 M after 48 hrs by SRB assay; settings: RPMI-8226, 48 h, read-out: Activity
[23] = system: MCF7; assay: Cytotoxicity against human MCF7 cells assessed as cell growth at 10^-5 M after 48 hrs by SRB assay; settings: MCF7, 48 h, read-out: Activity
[24] = system: PC-3; assay: Cytotoxicity against human PC3 cells assessed as cell growth at 10^-5 M after 48 hrs by SRB assay; settings: PC-3, 48 h, read-out: Activity
[25] = system: IGROV-1; assay: Cytotoxicity against human IGROV1 cells assessed as cell growth at 10^-5 M after 48 hrs by SRB assay; settings: IGROV-1, 48 h, read-out: Activity
[26] = system: NCI-H522; assay: Cytotoxicity against human NCI-H522 cells assessed as cell growth at 10^-5 M after 48 hrs by SRB assay; settings: NCI-H522, 48 h, read-out: Activity
[27] = system: K562; assay: Cytotoxicity against human K562 cells assessed as cell growth at 10^-5 M after 48 hrs by SRB assay; settings: K562, 48 h, read-out: Activity
[28] = system: HL-60(TB); assay: Cytotoxicity against human HL-60(TB) cells assessed as cell growth at 10^-5 M after 48 hrs by SRB assay; settings: HL-60, 48 h, read-out: Activity

COc1ccc(NC(=O)c2nnn(-c3ccc(F)cc3)c2N)c(OC)c1
GI50 [1]: 6.46 µM
TGI ([1]; read-out: pTGI): > 100 µM
GI50 [2]: 30.2 µM
TGI ([2]; read-out: pTGI): > 100 µM
GI50 [3]: 37.2 µM
TGI ([3]; read-out: pTGI (converted)): > 100 µM
GI50 [4]: 13.8 µM
TGI ([4]; read-out: pTGI): > 100 µM
GI50 [5]: 12.9 µM
TGI ([5]; read-out: pTGI): > 100 µM
GI50 [6]: 11.7 µM
TGI ([6]; read-out: pTGI): > 100 µM
GI50 [7]: 3.89 µM
TGI ([7]; read-out: pTGI (converted)): > 100 µM
GI50 [8]: 17.8 µM
TGI ([8]; read-out: pTGI): > 100 µM
growth at 10 µM [9]: -2.61%
growth at 10 µM [10]: -1.64%
growth at 10 µM [11]: -9.89%
growth at 10 µM [12]: -27.3%
growth at 10 µM [13]: -4.64%

Cc1cccc(C)c1NC(=O)c1nnn(-c2ccc(F)cc2)c1N
growth at 10 µM [14]: 78.7%
growth at 10 µM [15]: 76.8%
growth at 10 µM [16]: 75.9%
growth at 10 µM [17]: 66.7%
growth at 10 µM [18]: 64%

Cc1c(C(=O)NCc2ccco2)nnn1-c1ccc2noc(-c3ccc(Cl)cc3)c2c1
growth at 10 µM [19]: 68%
growth at 10 µM [20]: 52%
growth at 10 µM [14]: 56.2%
growth at 10 µM [21]: 64.2%
growth at 10 µM [22]: 65.3%

Nc1c(C(=O)Nc2ccc(F)cc2)nnn1-c1cccc(C(F)(F)F)c1
growth at 10 µM [23]: 82.5%
growth at 10 µM [14]: 81.7%
growth at 10 µM [22]: 81.4%

COc1ccc(NC(=O)c2nnn(-c3ccc(C)cc3)c2N)cc1
growth at 10 µM [24]: 74.3%
growth at 10 µM [15]: 69.4%

COc1cccc(NC(=O)c2nnn(-c3ccc4noc(-c5ccc(Cl)cc5)c4c3)c2C)c1
growth at 10 µM [19]: 56.6%
growth at 10 µM [25]: 49.9%
growth at 10 µM [12]: 46.6%
growth at 10 µM [13]: 54.1%
growth at 10 µM [26]: 62%
growth at 10 µM [15]: 61.5%

Nc1c(C(=O)NC2CCCC2)nnn1-c1cccc(C(F)(F)F)c1
growth at 10 µM [14]: 89.1%
growth at 10 µM [26]: 87%

CCc1c(C(=O)Nc2ccc(Cl)cc2)nnn1-c1ccc2noc(-c3ccccc3)c2c1
growth at 10 µM [20]: 67.8%
growth at 10 µM [21]: 83.6%
growth at 10 µM [26]: 88.9%
growth at 10 µM [17]: 85.1%

Cc1ccc(-n2nnc(C(=O)Nc3ncc(Cc4cccc(Cl)c4)s3)c2C)cc1
growth at 10 µM [20]: 70.8%
growth at 10 µM [21]: 76.6%
growth at 10 µM [16]: 74.9%
growth at 10 µM [22]: 62.7%
growth at 10 µM [18]: 63.3%

COc1ccc(NC(=O)c2nnn(-c3cccc(C(F)(F)F)c3)c2N)c(OC)c1
growth at 10 µM [15]: 77.3%
growth at 10 µM [27]: 71.7%
growth at 10 µM [28]: 78.4%

Cc1cc(C)cc(-n2nnc(C(=O)NC(C)C)c2N)c1
growth at 10 µM [23]: 83.3%
growth at 10 µM [13]: 78.9%
growth at 10 µM [17]: 83.6%
